The text below walks through data of PMC5297703, “R-Flurbiprofen Traps Prostaglandins within Cells by Inhibition of Multidrug Resistance-Associated Protein-4” (International Journal of Molecular Sciences, 2016).

In this assay the target is T1, cPLA2α (Homo sapiens, UniProt P47712).
T1 construct: gene PLA2G4A; recombinant, isolated from Sf9 insect cells
T1 sequence (P47712 1-749): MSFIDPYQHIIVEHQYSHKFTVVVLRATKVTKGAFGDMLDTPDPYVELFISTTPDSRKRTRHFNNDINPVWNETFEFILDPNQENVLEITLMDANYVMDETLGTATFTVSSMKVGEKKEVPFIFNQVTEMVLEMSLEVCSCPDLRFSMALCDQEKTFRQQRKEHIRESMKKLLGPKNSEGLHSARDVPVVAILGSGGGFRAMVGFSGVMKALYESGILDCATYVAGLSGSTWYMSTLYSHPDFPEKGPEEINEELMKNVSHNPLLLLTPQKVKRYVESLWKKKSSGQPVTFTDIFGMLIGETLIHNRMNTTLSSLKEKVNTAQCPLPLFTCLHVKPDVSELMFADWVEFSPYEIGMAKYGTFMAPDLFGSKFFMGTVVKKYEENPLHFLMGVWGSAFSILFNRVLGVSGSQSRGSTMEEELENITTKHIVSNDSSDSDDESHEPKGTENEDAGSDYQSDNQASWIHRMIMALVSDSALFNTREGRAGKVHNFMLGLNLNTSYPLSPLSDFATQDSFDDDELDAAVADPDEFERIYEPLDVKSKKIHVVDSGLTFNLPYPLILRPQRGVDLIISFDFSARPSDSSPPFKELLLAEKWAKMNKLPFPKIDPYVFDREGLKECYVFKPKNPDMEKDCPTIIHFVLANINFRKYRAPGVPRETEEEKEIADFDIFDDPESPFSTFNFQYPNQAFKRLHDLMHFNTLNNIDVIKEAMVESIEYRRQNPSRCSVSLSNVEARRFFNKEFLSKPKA
Put plainly: cPLA2α activity assay with PAPC/POG vesicles, arachidonic acid by LC-MS/MS. It is filed as biochemical.

Usually IC50 stands for the concentration that gives 50% inhibition. As for `C[C@@H](C(=O)O)c1ccc(-c2ccccc2)c(F)c1` [R-flurbiprofen], the midpoint of inhibition, the IC50, lay at 202 µM.
